Measured values as given in PMC12192727, “Strategies to Develop Na,K-ATPase-α4 Inhibitors as Male Contraceptives” (International Journal of Molecular Sciences, 2025).

Tests used:
[1] = Metabolic stability in human hepatocytes; assay type: in vitro ADME; conditions: human hepatocytes
Procedure: (§1) The in vitro metabolic half-life (t1/2) is calculated using the slope of the log−linear regression from the percentage of the parent compound remaining versus the time relationship (κ). The experimental details are reported in the Supporting Information (Tables S6 and S7).

human hepatocytes = assay: Metabolic stability in human hepatocytes; assay type: in vitro ADME
Procedure: as §1

mouse hepatocytes = assay: Metabolic stability in mouse hepatocytes; assay type: in vitro ADME
Procedure: as §1

[2] = Metabolic stability in mouse hepatocytes; assay type: in vitro ADME; conditions: mouse hepatocytes
Procedure: as §1

[3] = LogD, 1-octanol/phosphate buffer pH 7.4; assay type: physicochemical

CC12CCC(=O)C=C1CCCC2n1cc(-c2ccccc2)nn1 (stereo not shown) [Compound 45, 4a-Methyl-5-(4-phenyl-1H-1,2,3-triazol-1-yl)-4,4a,5,6,7,8-hexahydronaphthalen-2(3H)-one]
hepatocyte CLint at 1 μM ([1]; read-out: In vitro Clint): 36 µL/min/1e6 cells
CLint scaled at 1 µM ([1]; read-out: Scale-up Clint): 91.7 mL/min/kg
half-life at 1 µM ([1]; human, hepatocytes, read-out: In vitro T1/2): 38.5 min
Remaining Percentage (%) (human hepatocytes; human boiled hepatocytes, 0 min): 100.00%
Remaining Percentage (%) (human hepatocytes; human boiled hepatocytes, 15 min): 105.47%
Remaining Percentage (%) (human hepatocytes; human boiled hepatocytes, 30 min): 106.55%
Remaining Percentage (%) (human hepatocytes; human boiled hepatocytes, 60 min): 108.22%
Remaining Percentage (%) (human hepatocytes; human boiled hepatocytes, 90 min): 105.29%
Remaining Percentage (%) (human hepatocytes; human boiled hepatocytes, 120 min): 107.99%
Hepatic Extraction Ratio (E) (human hepatocytes; human hepatocytes): 0.82
Predicted hepatic CL (human hepatocytes; human hepatocytes): 16.89 mL/min/kg
Remaining Percentage (%) (human hepatocytes; human hepatocytes, 0 min): 100.00%
Remaining Percentage (%) (human hepatocytes; human hepatocytes, 15 min): 83.47%
Remaining Percentage (%) (human hepatocytes; human hepatocytes, 30 min): 64.22%
Remaining Percentage (%) (human hepatocytes; human hepatocytes, 60 min): 39.26%
Remaining Percentage (%) (human hepatocytes; human hepatocytes, 90 min): 22.24%
Remaining Percentage (%) (human hepatocytes; human hepatocytes, 120 min): 11.51%
Metabolic Stability in Hepatocytes (60 min), compound remaining (human hepatocytes; human, 60 min): 39%
Remaining Percentage (%) (mouse hepatocytes; mouse boiled hepatocytes, 0 min): 100.00%
Remaining Percentage (%) (mouse hepatocytes; mouse boiled hepatocytes, 15 min): 104.93%
Remaining Percentage (%) (mouse hepatocytes; mouse boiled hepatocytes, 30 min): 101.77%
Remaining Percentage (%) (mouse hepatocytes; mouse boiled hepatocytes, 60 min): 101.78%
Remaining Percentage (%) (mouse hepatocytes; mouse boiled hepatocytes, 90 min): 101.42%
Remaining Percentage (%) (mouse hepatocytes; mouse boiled hepatocytes, 120 min): 100.86%
Hepatic Extraction Ratio (E) (mouse hepatocytes; mouse hepatocytes): 0.91
Predicted hepatic CL (mouse hepatocytes; mouse hepatocytes): 81.91 mL/min/kg
Remaining Percentage (%) (mouse hepatocytes; mouse hepatocytes, 0 min): 100.00%
Remaining Percentage (%) (mouse hepatocytes; mouse hepatocytes, 15 min): 54.16%
Remaining Percentage (%) (mouse hepatocytes; mouse hepatocytes, 30 min): 31.17%
Remaining Percentage (%) (mouse hepatocytes; mouse hepatocytes, 60 min): 10.30%
Remaining Percentage (%) (mouse hepatocytes; mouse hepatocytes, 90 min): 3.01%
Remaining Percentage (%) (mouse hepatocytes; mouse hepatocytes, 120 min): 0.80%
Metabolic Stability in Hepatocytes (60 min), compound remaining (mouse hepatocytes; mouse, 60 min): 10%
hepatocyte CLint at 1 μM ([2]; read-out: In vitro Clint): 77.1 µL/min/1e6 cells
CLint scaled at 1 µM ([2]; read-out: Scale-up Clint): 911 mL/min/kg
half-life at 1 µM ([2]; mouse, hepatocytes, read-out: In vitro T1/2): 18 min
logD [3]: 2.66
